Like-named read-outs stand apart in the source and are kept apart here.
Key:
EGFR (C797S L858R) = biological target: T1, EGFR (C797S L858R) (Homo sapiens, UniProt P00533, C797S/L858R); assay: Inhibition of EGFR (C797S L858R) biochemical enzymatic activity (HTRF); conditions: EGFR L858-C797S, 1 mM ATP, 1 h, room temperature, read-out: IC50 (nM) @L858-C797S
T1 construct: purchased signalchem
In short: (§1)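 HTRF kinase assay: each EGFR enzyme phosphorylated 1 μM biotinylated TK substrate with 1 mM ATP in buffer containing 5 mM MgCl2, 1 mM MnCl2, 0.01% CHAPS, 1 mM DTT, 0.5% DMSO. After 1 h at room temperature, EDTA detection mix stopped the reaction. IC50 came from a four-parameter logistic fit of the 665/615 nm ratio.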

PC-9 = assay: Cell proliferation assay, PC-9 cells (CellTiter-Glo, 72 hours); type: cell-based; conditions: PC9 cells, CellTiter-Glo, read-out: PC9 GI50
In short: (§2)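 Cells are exposed to graded compound concentrations after overnight plating, using 500 PC-9 or 5000 Ba/F3 per well. Baseline-subtracted viability is compared with vehicle to give percent proliferation, then GI50.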

[1] = system: Ba/F3 cells expressing EGFR mutations; assay: Cell proliferation assay, Ba/F3 cells expressing EGFR mutations (CellTiter-Glo, 72 hours); type: cell-based; conditions: CellTiter-Glo
In short: as §2

EGFR (d746-750 C797S) = biological target: T2, EGFR (d746-750 C797S) (Homo sapiens, UniProt P00533, C797S/DEL746-750); assay: Inhibition of EGFR (d746-750 C797S) biochemical enzymatic activity (HTRF); conditions: EGFR Del19-C797S, 1 mM ATP, 1 h, room temperature, read-out: IC50 (nM) @Del19-C797S
T2 construct: purchased signalchem
In short: as §1

EGFR wild type = biological target: T3, EGFR wild type (Homo sapiens, UniProt P00533); assay: Inhibition of EGFR wild type biochemical enzymatic activity (HTRF); conditions: EGFR WT, 1 mM ATP, 1 h, room temperature, read-out: IC50 (nM) @WT
T3 construct: purchased Carna Bio
In short: as §1

EGFR Exon19Del = biological target: T4, EGFR Exon19Del (Homo sapiens, UniProt P00533, DEL746-750); assay: Inhibition of EGFR Exon19Del biochemical enzymatic activity (HTRF); conditions: EGFR Del19, 1 mM ATP, 1 h, room temperature, read-out: IC50 @Del19
T4 construct: purchased Carna Bio
In short: as §1

A-431 = assay: Cell proliferation GI50, A-431 cells (Table 6); type: cell-based
EGFR Exon19Del/T790M = biological target: T5, EGFR Exon19Del/T790M (Homo sapiens, UniProt P00533, DEL746-750/T790M); assay: Inhibition of EGFR Exon19Del/T790M biochemical enzymatic activity (HTRF); conditions: EGFR Del19-T790M, 1 mM ATP, 1 h, room temperature, read-out: IC50 (nM) @Del19-T790M
T5 construct: purchased Carna Bio
In short: as §1

EGFR L858R = biological target: T6, EGFR L858R (Homo sapiens, UniProt P00533, L858R); assay: Inhibition of EGFR L858R biochemical enzymatic activity (HTRF); conditions: 1 mM ATP, 1 h, room temperature, read-out: IC50 (nM) @L858R
T6 construct: purchased Carna Bio
In short: as §1

EGFR L858R/T790M = biological target: T7, EGFR L858R/T790M (Homo sapiens, UniProt P00533, L858R/T790M); assay: Inhibition of EGFR L858R/T790M biochemical enzymatic activity (HTRF); conditions: EGFR L858R-T790M, 1 mM ATP, 1 h, room temperature, read-out: IC50 (nM) @L858R-T790M
T7 construct: purchased Carna Bio
In short: as §1

[2] = biological target: T8, EGFR[T790M/C797S/d746-750] (Homo sapiens, UniProt P00533, C797S/DEL746-750/T790M); assay: Inhibition of EGFR[T790M/C797S/d746-750] biochemical enzymatic activity (HTRF); conditions: EGFR T790M-C797S-Del19, 1 mM ATP, 1 h, room temperature, read-out: IC50 (nM) @T790M - C797S - Del19
T8 construct: purchased Carna Bio
In short: as §1

EGFR[T790M/C797S/L858R] = biological target: T9, EGFR[T790M/C797S/L858R] (Homo sapiens, UniProt P00533, C797S/L858R/T790M); assay: Inhibition of EGFR[T790M/C797S/L858R] biochemical enzymatic activity (HTRF); conditions: EGFR T790M-C797S-L858R, 1 mM ATP, 1 h, room temperature, read-out: IC50 (nM) @T790M- C797S - L858R
T9 construct: purchased Carna Bio
In short: as §1

[3] = BaF3 cells, EGFR DEL19-C797S, read-out: DEL19-C797S/BaF3 GI50
[4] = BaF3 cells, EGFR DEL19-T790-C797S, read-out: DEL19-T790-C797S/BaF3 GI50
[5] = BaF3 cells, EGFR L858R, read-out: L858R/BaF3 GI50
[6] = BaF3 cells, EGFR L858R-C797S, read-out: L858R-C797S/BaF3 GI50
[7] = BaF3 cells, EGFR L858R-T790-C797S, read-out: L858R-T790-C797S/BaF3 GI50
[8] = BaF3 cells, EGFR L858R-T790M, read-out: L858R-T790M/BaF3 GI50
[9] = EGFR DEL19-T790M, read-out: DEL19-T790M GI50
[10] = Homo sapiens, A-431, A-431 cells
[11] = Mus musculus, BaF3, 72 h, BaF3 cells, EGFR DEL19-C797S, read-out: DEL19-C797S/BaF3 GI50
[12] = Mus musculus, BaF3, 72 h, BaF3 cells, EGFR DEL19-T790-C797S, read-out: DEL19-T790-C797S/BaF3 GI50
[13] = Mus musculus, BaF3, 72 h, BaF3 cells, EGFR L858R, read-out: L858R/BaF3 GI50
[14] = Mus musculus, BaF3, 72 h, BaF3 cells, EGFR L858R-C797S, read-out: L858R-C797S/BaF3 GI50
[15] = Mus musculus, BaF3, 72 h, BaF3 cells, EGFR L858R-T790-C797S, read-out: L858R-T790-C797S/BaF3 GI50
[16] = Mus musculus, BaF3, 72 h, BaF3 cells, EGFR L858R-T790M, read-out: L858R-T790M/BaF3 GI50
[17] = Mus musculus, BaF3, 72 h, EGFR DEL19-T790M, read-out: DEL19-T790M GI50

T5 sequence (P00533 with tags, fused parts or gaps DEL746-750/T790M limits assumed): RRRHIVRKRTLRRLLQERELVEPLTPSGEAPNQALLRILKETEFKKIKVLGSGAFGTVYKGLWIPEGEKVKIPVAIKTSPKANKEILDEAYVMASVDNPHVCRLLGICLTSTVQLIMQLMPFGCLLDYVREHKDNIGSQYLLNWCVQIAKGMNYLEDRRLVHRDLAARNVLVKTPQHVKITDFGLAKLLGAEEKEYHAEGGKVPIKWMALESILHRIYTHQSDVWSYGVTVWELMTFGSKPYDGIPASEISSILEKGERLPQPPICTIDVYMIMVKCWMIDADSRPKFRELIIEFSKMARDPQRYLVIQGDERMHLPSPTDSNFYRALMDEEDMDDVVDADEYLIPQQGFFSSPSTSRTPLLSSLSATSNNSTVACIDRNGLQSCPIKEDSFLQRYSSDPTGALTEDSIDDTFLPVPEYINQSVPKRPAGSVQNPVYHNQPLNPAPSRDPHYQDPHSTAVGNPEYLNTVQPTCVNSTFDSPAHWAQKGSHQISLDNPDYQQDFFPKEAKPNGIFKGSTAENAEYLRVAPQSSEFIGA
T4 sequence (P00533 with tags, fused parts or gaps DEL746-750 limits assumed): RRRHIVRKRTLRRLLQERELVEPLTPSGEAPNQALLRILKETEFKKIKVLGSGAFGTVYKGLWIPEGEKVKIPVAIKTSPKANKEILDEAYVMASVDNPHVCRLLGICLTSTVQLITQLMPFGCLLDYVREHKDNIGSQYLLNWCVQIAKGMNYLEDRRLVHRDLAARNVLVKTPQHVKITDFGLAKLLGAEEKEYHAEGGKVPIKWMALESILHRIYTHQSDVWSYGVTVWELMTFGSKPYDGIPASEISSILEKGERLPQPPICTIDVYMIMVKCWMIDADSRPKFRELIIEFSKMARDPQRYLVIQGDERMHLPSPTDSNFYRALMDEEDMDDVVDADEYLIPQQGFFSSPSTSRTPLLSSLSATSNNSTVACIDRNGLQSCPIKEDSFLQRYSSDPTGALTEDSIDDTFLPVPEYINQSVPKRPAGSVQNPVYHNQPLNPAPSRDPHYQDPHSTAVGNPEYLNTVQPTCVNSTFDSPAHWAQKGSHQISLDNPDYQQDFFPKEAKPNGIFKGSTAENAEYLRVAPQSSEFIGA
T8 sequence (P00533 with tags, fused parts or gaps DEL746-750/T790M/C797S limits assumed): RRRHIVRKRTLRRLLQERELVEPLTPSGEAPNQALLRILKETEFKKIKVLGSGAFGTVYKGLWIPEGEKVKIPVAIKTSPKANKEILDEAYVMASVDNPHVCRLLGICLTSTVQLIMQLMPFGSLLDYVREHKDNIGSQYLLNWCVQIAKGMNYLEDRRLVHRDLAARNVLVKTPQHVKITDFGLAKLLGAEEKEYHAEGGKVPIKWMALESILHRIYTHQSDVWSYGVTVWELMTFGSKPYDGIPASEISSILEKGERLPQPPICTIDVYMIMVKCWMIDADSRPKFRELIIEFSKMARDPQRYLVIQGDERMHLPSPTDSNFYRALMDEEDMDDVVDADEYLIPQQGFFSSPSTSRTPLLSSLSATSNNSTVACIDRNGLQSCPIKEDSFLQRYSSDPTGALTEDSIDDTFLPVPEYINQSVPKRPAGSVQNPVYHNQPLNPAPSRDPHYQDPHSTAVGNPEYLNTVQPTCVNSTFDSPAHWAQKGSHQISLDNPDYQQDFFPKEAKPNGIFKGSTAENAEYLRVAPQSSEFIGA
T1 sequence (P00533 25-1210 C797S/L858R): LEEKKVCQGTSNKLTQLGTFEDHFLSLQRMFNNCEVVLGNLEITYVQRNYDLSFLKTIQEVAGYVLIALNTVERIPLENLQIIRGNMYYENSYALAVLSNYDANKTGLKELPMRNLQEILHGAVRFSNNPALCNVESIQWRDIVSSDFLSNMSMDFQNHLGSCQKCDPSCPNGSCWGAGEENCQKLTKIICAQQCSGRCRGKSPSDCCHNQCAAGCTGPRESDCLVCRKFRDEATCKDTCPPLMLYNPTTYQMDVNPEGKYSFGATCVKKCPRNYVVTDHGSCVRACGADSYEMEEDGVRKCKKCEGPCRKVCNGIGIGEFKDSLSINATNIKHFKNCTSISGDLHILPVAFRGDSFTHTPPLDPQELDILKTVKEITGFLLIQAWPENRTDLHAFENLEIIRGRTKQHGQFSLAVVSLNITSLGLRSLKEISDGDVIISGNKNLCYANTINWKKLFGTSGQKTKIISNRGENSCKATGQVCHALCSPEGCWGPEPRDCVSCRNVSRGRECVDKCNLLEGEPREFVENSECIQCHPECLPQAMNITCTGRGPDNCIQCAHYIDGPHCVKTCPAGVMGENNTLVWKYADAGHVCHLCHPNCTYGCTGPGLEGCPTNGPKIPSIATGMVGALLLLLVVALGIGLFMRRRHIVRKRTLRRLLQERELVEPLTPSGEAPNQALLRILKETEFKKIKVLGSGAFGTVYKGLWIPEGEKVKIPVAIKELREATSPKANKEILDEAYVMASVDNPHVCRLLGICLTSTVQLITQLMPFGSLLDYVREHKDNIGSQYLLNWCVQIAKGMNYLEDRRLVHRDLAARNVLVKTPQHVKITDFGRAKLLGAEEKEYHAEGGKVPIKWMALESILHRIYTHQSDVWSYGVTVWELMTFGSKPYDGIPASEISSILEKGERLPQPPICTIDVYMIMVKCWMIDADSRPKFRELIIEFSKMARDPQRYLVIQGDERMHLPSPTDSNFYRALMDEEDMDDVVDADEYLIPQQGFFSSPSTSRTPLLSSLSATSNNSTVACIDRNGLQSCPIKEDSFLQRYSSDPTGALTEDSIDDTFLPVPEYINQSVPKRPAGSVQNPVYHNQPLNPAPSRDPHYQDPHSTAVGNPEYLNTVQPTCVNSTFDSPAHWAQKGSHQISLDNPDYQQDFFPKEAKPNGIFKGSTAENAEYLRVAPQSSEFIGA
T2 sequence (P00533 with tags, fused parts or gaps DEL746-750/C797S limits assumed): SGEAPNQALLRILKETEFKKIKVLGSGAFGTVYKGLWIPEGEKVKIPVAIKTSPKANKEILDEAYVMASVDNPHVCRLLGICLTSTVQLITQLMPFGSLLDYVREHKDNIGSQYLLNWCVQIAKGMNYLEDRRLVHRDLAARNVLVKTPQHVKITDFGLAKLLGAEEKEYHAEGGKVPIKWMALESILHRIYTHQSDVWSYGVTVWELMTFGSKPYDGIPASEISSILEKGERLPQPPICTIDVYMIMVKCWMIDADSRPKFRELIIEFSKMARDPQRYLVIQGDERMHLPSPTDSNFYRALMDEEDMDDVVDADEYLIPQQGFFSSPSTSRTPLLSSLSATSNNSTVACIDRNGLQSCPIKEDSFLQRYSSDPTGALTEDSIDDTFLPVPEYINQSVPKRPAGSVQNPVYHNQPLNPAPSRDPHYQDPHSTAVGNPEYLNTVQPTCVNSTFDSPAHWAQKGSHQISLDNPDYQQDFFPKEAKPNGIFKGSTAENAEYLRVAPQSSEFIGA
T3 sequence (P00533 25-1210): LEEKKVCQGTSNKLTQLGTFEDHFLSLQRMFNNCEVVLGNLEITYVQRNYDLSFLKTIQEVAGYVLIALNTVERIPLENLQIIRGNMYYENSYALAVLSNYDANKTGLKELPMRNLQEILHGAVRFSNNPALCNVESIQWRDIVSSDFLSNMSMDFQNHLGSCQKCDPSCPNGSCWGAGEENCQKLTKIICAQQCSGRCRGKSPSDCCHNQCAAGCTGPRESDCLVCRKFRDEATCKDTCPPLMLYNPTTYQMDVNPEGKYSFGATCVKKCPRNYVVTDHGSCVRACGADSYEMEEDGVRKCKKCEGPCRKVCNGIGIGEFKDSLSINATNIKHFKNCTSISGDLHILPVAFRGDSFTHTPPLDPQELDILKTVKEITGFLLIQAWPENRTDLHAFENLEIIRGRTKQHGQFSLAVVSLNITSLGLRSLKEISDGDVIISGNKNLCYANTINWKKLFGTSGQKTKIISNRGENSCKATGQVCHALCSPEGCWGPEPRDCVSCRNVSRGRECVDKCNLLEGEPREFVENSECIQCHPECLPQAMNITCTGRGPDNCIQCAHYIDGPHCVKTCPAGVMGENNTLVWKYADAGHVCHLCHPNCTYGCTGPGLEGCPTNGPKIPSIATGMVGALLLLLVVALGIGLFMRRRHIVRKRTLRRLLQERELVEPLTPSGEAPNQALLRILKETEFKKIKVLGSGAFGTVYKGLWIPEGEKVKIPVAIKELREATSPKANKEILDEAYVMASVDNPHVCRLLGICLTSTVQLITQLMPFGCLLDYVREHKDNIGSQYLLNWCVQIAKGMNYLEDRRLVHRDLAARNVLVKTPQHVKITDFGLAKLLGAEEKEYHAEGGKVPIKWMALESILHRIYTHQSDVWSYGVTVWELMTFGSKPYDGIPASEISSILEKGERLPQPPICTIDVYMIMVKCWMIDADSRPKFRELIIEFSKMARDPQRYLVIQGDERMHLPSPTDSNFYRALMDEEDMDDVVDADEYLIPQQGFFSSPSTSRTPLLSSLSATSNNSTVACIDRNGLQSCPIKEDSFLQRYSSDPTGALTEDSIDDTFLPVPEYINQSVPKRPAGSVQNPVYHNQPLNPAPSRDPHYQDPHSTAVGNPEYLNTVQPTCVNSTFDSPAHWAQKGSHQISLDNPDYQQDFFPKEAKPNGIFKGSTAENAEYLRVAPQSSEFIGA

| IC50 (EGFR (C797S L858R)) | GI50 (PC-9) | GI50 [1, 3] | GI50 [1, 4] | GI50 [1, 5] | GI50 [1, 6] | GI50 [1, 7] | GI50 [1, 8] | GI50 [1, 9] | IC50 (EGFR (d746-750 C797S)) | IC50 (EGFR wild type) | IC50 (EGFR Exon19Del) | GI50 (A-431; [10]) | IC50 (EGFR Exon19Del/T790M) | IC50 (EGFR L858R) | IC50 (EGFR L858R/T790M) | IC50 [2] | IC50 (EGFR[T790M/C797S/L858R]) | GI50 (PC-9; Homo sapiens, PC-9, 72 h) | GI50 [1, 11] | Compound | further results |
| --- | --- | --- | --- | --- | --- | --- | --- | --- | --- | --- | --- | --- | --- | --- | --- | --- | --- | --- | --- | --- | --- |
| 3.7 nM | 4.2 nM | 0.68 nM | 1.5 nM | 1.7 nM | 3.2 nM | 1.4 nM | 7.2 nM | 2 nM | 1.1 nM | 18 nM | 2.7 nM | 473 nM | 2 nM | 3.7 nM | 1.7 nM | 1.6 nM | 2.1 nM | – | – | CN(C)[C@@H]1CCN(c2ccc3nc4n(c3c2)C23CCC(CN(CCOc5c(cnn5C)-c5cc(cn(C)c5=O)C(=O)N4)C2)C3)C1 (single isomer, unassigned) [Example A66D] | – |
| 1.4 nM | 2.4 nM | 0.77 nM | 0.86 nM | 0.78 nM | 0.68 nM | 1 nM | 0.82 nM | 0.9 nM | 0.87 nM | 0.92 nM | 1.1 nM | 203 nM | 2.1 nM | 0.87 nM | 1.8 nM | 2 nM | 1.7 nM | – | – | CN1CCC2(CCN(c3ccc4nc5n(c4c3)C34CCC(CN(CCOc6c(cnn6C)-c6cc(cn(C)c6=O)C(=O)N5)C3)C4)CC2)C1 (single isomer, unassigned) [Example A82B] | – |
| 30 nM | – | – | – | – | – | – | – | – | 2.8 nM | 1520 nM | 5.9 nM | 290 nM | 5 nM | 74 nM | 14 nM | 5.1 nM | 8.2 nM | 7.6 nM | 1.9 nM | C[C@@H]1CCCOc2c(cnn2C)-c2cc(cn(C)c2=O)C(=O)Nc2nc3ccc(N4CCN(C5COC5)CC4)cc3n2C1 [Example A39] | GI50 [1, 12]: 4.7 nM; GI50 [1, 13]: 5.2 nM; GI50 [1, 14]: 6.9 nM; GI50 [1, 15]: 5.4 nM; GI50 [1, 16]: 16 nM; GI50 [1, 17]: 8.4 nM |
| 942 nM | 320 nM | 84 nM | 204 nM | 202 nM | 123 nM | 223 nM | 369 nM | 227 nM | 268 nM | > 5000 nM | 293 nM | – | > 5000 nM | 577 nM | > 5000 nM | 3170 nM | > 5000 nM | – | – | CC(C)N1CCN(c2ccc3nc4n(c3c2)C23CCC(CN(CCOc5c(cnn5C)-c5cc(cn(C)c5=O)C(=O)N4)C2)C3)CC1 (single isomer, unassigned) [Example A108A] | GI50 (A-431; A-431 cells): 1380 nM |
| 1.1 nM | 5 nM | 0.67 nM | 1.4 nM | 1.1 nM | 3.1 nM | 1.3 nM | 8.6 nM | 1.9 nM | 0.51 nM | 8 nM | 0.86 nM | – | 0.94 nM | 1.6 nM | 0.92 nM | 1.1 nM | 0.96 nM | – | – | CN1CCN(c2ccc3nc4n(c3c2)C23CCC(CN(CCOc5c(cnn5C)-c5cc(cn(C)c5=O)C(=O)N4)C2)C3)CC1 (single isomer, unassigned) [Example A63B] | GI50 (A-431; A-431 cells): 620 nM |
| 4.1 nM | – | – | – | – | – | – | – | – | 3.7 nM | 52 nM | 3.5 nM | 1010 nM | 4.8 nM | 5 nM | 4.3 nM | 3.7 nM | 3.4 nM | 80 nM | 5.8 nM | CN1CCN(c2ccc3nc4n(c3c2)CCN(CC(F)(F)F)CCOc2c(cnn2C2CC2)-c2cc(cn(C)c2=O)C(=O)N4)CC1 [Example A2, 5-Cyclopropyl-26-methyl-16-(4-methylpiperazin-1-yl)-10-(2,2,2-trifluoroethyl)-7-oxa-4,5,10,13,20,22,26-heptaazapentacyclo[22.3.1.0^{2,6}.0^{13,21}.0^{14,19}]octacosa-1(28),2(6),3,14,16,18,20,24-octaene-23,27-dione] | GI50 [1, 12]: 30 nM; GI50 [1, 13]: 3.7 nM; GI50 [1, 14]: 5.2 nM; GI50 [1, 15]: 6.7 nM; GI50 [1, 16]: 5.5 nM; GI50 [1, 17]: 33 nM |
| 3950 nM | 763 nM | 102 nM | 527 nM | 129 nM | 325 nM | 124 nM | 1000 nM | 459 nM | 850 nM | > 5000 nM | 1190 nM | – | > 5000 nM | 3030 nM | > 5000 nM | > 5000 nM | > 5000 nM | – | – | CN(C)C1CCN(c2ccc3nc4n(c3c2)C23CCC(CN(CCOc5c(cnn5C)-c5cc(cn(C)c5=O)C(=O)N4)C2)C3)CC1(F)F (single isomer, unassigned) [Example A97A] | GI50 (A-431; A-431 cells): 5790 nM |
| 7.4 nM | – | – | – | – | – | – | – | – | 1.8 nM | 124 nM | 2.4 nM | 126 nM | 3.8 nM | 15 nM | 6.7 nM | 4 nM | 4.8 nM | 6.3 nM | 1 nM | CC(C)N1CCN(c2ccc3nc4n(c3c2)C[C@H](C)CCCOc2c(cnn2C)-c2cc(cn(C)c2=O)C(=O)N4)CC1 [Example A50] | GI50 [1, 12]: 5.3 nM; GI50 [1, 13]: 2.7 nM; GI50 [1, 14]: 2.4 nM; GI50 [1, 15]: 1.9 nM; GI50 [1, 16]: 9.5 nM; GI50 [1, 17]: 7.5 nM |
